# In patent US8183238B2, “Bicyclic and tricyclic compounds as KAT II inhibitors” (priority 2009, dated 2012):
# Counter-ions that a name gives are not always drawn.
# Target: human KAT II (hKAT II) enzyme (Homo sapiens, UniProt Q8N5Z0)
# Assay: KAT II Inhibition Spectra Assay
# Type: biochemical
# Conditions: not given
# Protocol: Formation of kynurenic acid (KYNA) is indirectly assessed by a decrease in light absorbance at 370 nm (OD370) as the L-kynurenine (KYN) substrate is converted by the human KAT II (hKAT II) enzyme into KYNA. An inhibitor would therefore inhibit the decrease in OD370.
# The protocol was performed by placing the following reagents into a Costar 384 well black plate (30 μL total assay volume/well): • 10 μL of 3× concentrated compound; • 10 μL of 3× concentrated substrate mix (BGG (Sigma G-5009); 3 mM L-Kynurenine in 150 mM Tris Acetate (Sigma K3750); 3 mM α-ketoglutaric acid in 150 mM Tris Acetate (Sigma K2010); and 210 μM pyridoxal 5-phosphate (PLP) in 150 mM Tris Acetate (Sigma 9255)); and • 10 μL of 3× concentrated enzyme (15 nM enzyme in 150 mM Tris Acetate with 0.3% bovine serum).
# Plates were sealed and incubated at 37° C. for 15-20 h before reading OD370 on a SpectraMax Plus plate reader. IC50s were generated by comparing the efficacy of compounds across a concentration range to inhibit a reduction in the OD370 value relative to assay wells with DMSO added in place of concentrated compound.
# human KAT II (hKAT II) enzyme, sequence (Q8N5Z0 30-425): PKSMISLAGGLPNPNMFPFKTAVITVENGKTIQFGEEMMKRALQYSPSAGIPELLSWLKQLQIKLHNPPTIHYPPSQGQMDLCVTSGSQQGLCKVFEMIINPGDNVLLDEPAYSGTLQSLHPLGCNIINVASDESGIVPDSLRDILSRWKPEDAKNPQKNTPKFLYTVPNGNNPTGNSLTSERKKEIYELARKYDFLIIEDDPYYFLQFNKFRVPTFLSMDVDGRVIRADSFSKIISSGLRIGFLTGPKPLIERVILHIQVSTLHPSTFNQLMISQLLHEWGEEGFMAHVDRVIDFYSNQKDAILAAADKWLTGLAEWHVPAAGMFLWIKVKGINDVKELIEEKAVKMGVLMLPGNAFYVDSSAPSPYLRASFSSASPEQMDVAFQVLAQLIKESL
row,SMILES,IC50 [nM]
1,"CN(C)C(=O)ON1C(=O)[C@@H](N)Cc2ccccc21 [Example 73, (3S)-3-amino-1-[(dimethylcarbamoyl)oxy]-3,4-dihydroquinolin-2(1H)-one, hydrochloride salt]",1090

# Same assay, conditions: Table 5; hKAT II, decrease in OD370, 37° C., 15-20 h; read-out: KATII IC50
row,IC50 [nM],SMILES
1,102,"CCOc1ccccc1-c1ccc2c(c1)N(O)C(=O)C(N)C2 (stereo not drawn) [Example 57, 3-amino-7-(2-ethoxyphenyl)-1-hydroxy-3,4-dihydroquinolin-2(1H)-one, trifluoroacetate salt]"
2,174,"NC1Cc2ccc(-c3cc(Cl)cc(Cl)c3)cc2N(O)C1=O (stereo not drawn) [Example 58, 3-amino-7-(3,5-dichlorophenyl)-1-hydroxy-3,4-dihydroquinolin-2(1H)-one, trifluoroacetate salt]"
3,156,"COc1ccc(F)cc1-c1ccc2c(c1)N(O)C(=O)C(N)C2 (stereo not drawn) [Example 59, 3-amino-7-(5-fluoro-2-methoxyphenyl)-1-hydroxy-3,4-dihydroquinolin-2(1H)-one, trifluoroacetate salt]"
4,161,"CC(C)Oc1ccc(-c2ccc3c(c2)N(O)C(=O)C(N)C3)cc1 (stereo not drawn) [Example 60, 3-amino-1-hydroxy-7-(4-isopropoxyphenyl)-3,4-dihydroquinolin-2(1H)-one, trifluoroacetate salt]"
5,162,"NC1Cc2ccc(-c3ccc(OC(F)(F)F)cc3)cc2N(O)C1=O (stereo not drawn) [Example 61, 3-amino-1-hydroxy-7-[4-(trifluoromethoxy)phenyl]-3,4-dihydroquinolin-2(1H)-one, trifluoroacetate salt]"
6,135,"N#Cc1ccccc1-c1ccc2c(c1)N(O)C(=O)C(N)C2 (stereo not drawn) [Example 62, 2-(3-amino-1-hydroxy-2-oxo-1,2,3,4-tetrahydroquinolin-7-yl)benzonitrile, trifluoroacetate salt]"
7,113,"Cc1cccc(-c2ccc3c(c2)N(O)C(=O)C(N)C3)c1 (stereo not drawn) [Example 63, 3-amino-1-hydroxy-7-(3-methylphenyl)-3,4-dihydroquinolin-2(1H)-one, trifluoroacetate salt]"
8,141,"COc1ccc(-c2ccc3c(c2)N(O)C(=O)C(N)C3)cc1C (stereo not drawn) [Example 64, 3-amino-1-hydroxy-7-(4-methoxy-3-methylphenyl)-3,4-dihydroquinolin-2(1H)-one, trifluoroacetate salt]"
9,155,"NC1Cc2ccc(-c3ccc4c(c3)CCO4)cc2N(O)C1=O (stereo not drawn) [Example 65, 3-amino-7-(2,3-dihydro-1-benzofuran-5-yl)-1-hydroxy-3,4-dihydroquinolin-2(1H)-one, trifluoroacetate salt]"

# Same assay, conditions: Table 6; hKAT II, decrease in OD370, 37° C., 15-20 h; read-out: KATII IC50
row,IC50 [nM],SMILES
1,23.1,"N[C@H]1Cc2cc(Oc3ccccc3)cnc2N(O)C1=O [Example 66, (3S)-3-amino-1-hydroxy-6-phenoxy-3,4-dihydro-1,8-naphthyridin-2(1H)-one]"
2,42.1,"N[C@H]1Cc2cc(S(=O)(=O)c3ccccc3)ccc2N(O)C1=O [Example 67, (3S)-3-amino-1-hydroxy-6-(phenylsulfonyl)-3,4-dihydroquinolin-2(1H)-one, hydrochloride salt]"
3,42.7,"N[C@H]1Cc2cc(Cc3ccccc3)ccc2N(O)C1=O [Example 68, (3S)-3-amino-6-benzyl-1-hydroxy-3,4-dihydroquinolin-2(1H)-one, trifluoroacetic acid salt]"
4,43.3,"NC1Cc2cc(Oc3ccccc3Cl)ccc2N(O)C1=O (stereo not drawn) [Example 69, 3-amino-6-(2-chlorophenoxy)-1-hydroxy-3,4-dihydroquinolin-2(1H)-one, hydrochloride salt]"
5,24.6,"N#Cc1cccc(Oc2ccc3c(c2)C[C@H](N)C(=O)N3O)c1 [Example 70, 3-{[(3S)-3-amino-1-hydroxy-2-oxo-1,2,3,4-tetrahydroquinolin-6-yl]oxy}benzonitrile, hydrochloride salt]"
6,151,"N[C@H]1Cc2cccc(CN3CCOCC3)c2N(O)C1=O [Example 74, (3S)-3-amino-1-hydroxy-8-(morpholin-4-ylmethyl)-3,4-dihydroquinolin-2(1H)-one, trifluoroacetic acid salt]"
7,34.6,"CN(Cc1ccc2c(c1)C[C@H](N)C(=O)N2O)c1ccccc1 [Example 76, (3S)-3-amino-1-hydroxy-6-{[methyl(phenyl)amino]methyl}-3,4-dihydroquinolin-2(1H)-one]"
8,80.1,N[C@H]1Cc2cccc(Oc3ccccc3)c2N(O)C1=O [Example 77]
9,17.3,COc1cccc(Oc2ccc3c(c2)C[C@H](N)C(=O)N3O)c1 [Example 78]
10,29.5,N[C@H]1Cc2cc(Oc3cccc(C(F)(F)F)c3)cnc2N(O)C1=O [Example 79]
11,31.1,COc1cccc(Oc2cnc3c(c2)C[C@H](N)C(=O)N3O)c1 [Example 80]
12,212,N[C@H]1Cc2ccc3c(c2N(O)C1=O)CCO3 [Example 81]
13,41.1,N#Cc1ccccc1Oc1ccc2c(c1)CC(N)C(=O)N2O (stereo not drawn) [Example 82]
14,39.7,COc1cc2c(cc1Cc1cccc(C(F)(F)F)c1)C[C@H](N)C(=O)N2O [Example 83]
15,41.1,NC1Cc2cc(Oc3ccc(O)nc3)ccc2N(O)C1=O (stereo not drawn) [Example 84]
16,39.9,NC1Cc2cc(Oc3ccc(F)cc3F)ccc2N(O)C1=O (stereo not drawn) [Example 85]
17,65,NC1Cc2cc(F)cc(Oc3ccccc3)c2N(O)C1=O (stereo not drawn) [Example 86]
18,40.9,Cc1ncccc1Oc1ccc2c(c1)CC(N)C(=O)N2O (stereo not drawn) [Example 87]
19,20.9,Cc1ccc(Oc2ccc3c(c2)CC(N)C(=O)N3O)cn1 (stereo not drawn) [Example 88]

row,IC50 [nM],SMILES
1,36.4,NC1Cc2cc(Oc3cc(F)ccc3F)ccc2N(O)C1=O (stereo not drawn) [Example 89]
2,355,N[C@H]1Cc2cccc(-c3cccnc3C(F)(F)F)c2N(O)C1=O [Example 90]
3,36.2,COc1ccc(Oc2ccc3c(c2)CC(N)C(=O)N3O)cc1 (stereo not drawn) [Example 91]
4,51.3,NC1Cc2cc(Oc3ccccn3)ccc2N(O)C1=O (stereo not drawn) [Example 92]
5,35.6,NC1Cc2cc(Oc3cccc(C(F)(F)F)c3)ccc2N(O)C1=O (stereo not drawn) [Example 93]
6,43.9,NC1Cc2cc(Oc3cccc(OC(F)(F)F)c3)ccc2N(O)C1=O (stereo not drawn) [Example 94]
7,35.9,NC1Cc2cc(Oc3cccnc3)ccc2N(O)C1=O (stereo not drawn) [Example 95]
8,49.6,N[C@H]1Cc2cccc(OCC(F)(F)F)c2N(O)C1=O [Example 96]
9,313,N[C@H]1Cc2cccc(-c3ccccc3)c2N(O)C1=O [Example 97]
10,31.9,Cc1ccc(Oc2ccc3c(c2)CC(N)C(=O)N3O)cc1 (stereo not drawn) [Example 98]
11,19.8,N#Cc1ccc(Oc2ccc3c(c2)CC(N)C(=O)N3O)cc1 (stereo not drawn) [Example 99]
12,103,NC1Cc2cc(Oc3ccncc3)ccc2N(O)C1=O (stereo not drawn) [Example 100]
13,39.7,NC1Cc2cc(Oc3cccc(Cl)c3)ccc2N(O)C1=O (stereo not drawn) [Example 101]
14,68.6,NC1Cc2cc(Oc3ccc(C(F)(F)F)cc3)ccc2N(O)C1=O (stereo not drawn) [Example 102]
15,77.5,NC1Cc2cc(Oc3ccc(OC(F)(F)F)cc3)ccc2N(O)C1=O (stereo not drawn) [Example 103]
16,307,COc1cc(Cl)c2c(c1)N(O)C(=O)[C@@H](N)C2 [Example 104]
17,68.1,NC1Cc2cc(Oc3ccc(Cl)cc3)ccc2N(O)C1=O (stereo not drawn) [Example 105]
18,49.2,NC1Cc2cc(Oc3cccc(F)c3)ccc2N(O)C1=O (stereo not drawn) [Example 106]

row,SMILES,IC50 [nM]
1,"COc1cc2c(cc1Cc1ccccc1)C[C@H](N)C(=O)N2O [Example 75, (3S)-3-amino-6-benzyl-1-hydroxy-7-methoxy-3,4-dihydroquinolin-2(1H)-one, hydrochloride salt]",35.2
